Here are results for three compounds from patent US9717671B2, “Composition for improving skin, hair and coat health containing flavanones” (Nestec S.A., priority 2003, dated 2017).

The subject of assay [1] is Human immortalized keratinocytes (HaCaT). The assay can be described thus: Cytotoxicity assay (LDH activity in supernatant as a measure for cell death). The following applies: for cell death (LDH activity): normal culture conditions (without menadione). The assay is classed as cell-based. The method, then:
FIG. 1: HaCat cells were incubated with 10 μM hesperetin (hp, red bars) or low 10 μM hesperetin-7-O-glucuronide (hp-7-O-gluc, yellow bars) or equal amounts of DMSO as a control (blue bars) and treated with or without menadione for additional 5 h. The supernatant was analyzed for lactate dehydrogenase (LDH) activity and results were expressed relative to cells which were lysed with Triton X-100® before analysis (100% death). Human immortalized keratinocytes (HaCaT) were incubated with 10 μM hesperetin, 10 μM hesperetin-7-O-glucuronide or equal amounts of DMSO as a negative control for 16 h and 1 h before challenge. Cells were then treated with 100 μM menadione, a xenobiotic which generates reactive oxygen species intracellularly. Non-menadione treated cells were used as a positive control. After 5 h the supernatant was analysed for lactate dehydrogenase (LDH) activity as a measure for cell death using the CytoTox 96 non-radioactive cytotoxicity assay (Promega, USA).

Another assay deals with rat skin. The assay can be described thus: Histopathological analysis of rat skin, hesperidin growth trial. It counts as in vivo, female wistar rats. To be noted: rats fed hesperidin diet (0.1% and 0.5%) from weaning to 12 weeks of age, vs control diet. An excerpt: FIG. 3: Histopathological analysis of rat skin supplemented with hesperidin. 6 μm paraffin sections were de-waxed, stained with hematoxylin/eosin and mounted. Representative images in two magnifications are shown for the control group (A and D) and the groups supplemented with hesperidin (0.1%: B and E, 0.5% C and F).
(§1) Rat skin biopsies were obtained from the Heperidin growth trial (FIG. 2). Dorsal skin was excised, one part was fixed in 4% PFA and paraffin embedded, one part was cryo-preserved and another part was immediately frozen in liquid nitrogen.
Rat skin was dissected and fixed for 4 days in 4% paraformaldehyde in PBS (pH 7.4) at 4° C. and embedded in paraffin using a Leica Microsystem embedding apparatus. The tissues were washed in PBS and saline (0.9% NaCl) and dehydrated by passing them through saline solutions with increasing ethanol concentrations: 30 min each in 30%, 50%, 70%, 90%, 99%, 100% and an additional hour in 100%. Tissue samples were incubated twice for 30 min in xylene, followed by 2-3 h and 3 h incubations in paraffin wax at 60° C. 6 μm thick paraffin sections were cut using a Leica Microtome. Sections were de-waxed 5 min in xylene and dehydrated by passing them through a series of solutions with decreasing ethanol concentrations: 1 min each in 100%, 96%, 90%, 80%, 70%, and 50% ethanol. Finally, they were transferred into destilled water and stained. […]

Another assay relates to interleukin 6 (IL-6). In words: Real-time PCR of rat skin total RNA, IL-6 expression. The assay is classed as in vivo, female wistar rats. To be noted: rats fed 0.5% hesperidin diet, vs control diet. The method, then:
(§2) FIG. 4: Real-time PCR analysis of total RNA isolated from rat skin fed either a control diet (ctrl) or a hesperidin-supplemented diet (0.1% Hp, 0.5% Hp) for the expression of CD1d1 and interleukin 6 (IL-6). Samples were analyzed in 3 pools containing 4 rats each and obtained Ct values are shown for CD1d1 in A and IL-6 in B. Dots represent averages of technical triplicates, bars the total average per group. Fold changes in relative expression of the supplementation compared to control diet and relative to a housekeeping gene are shown in C. The control diet was set to 1 fold and is represented by a thick line. Confident intervals were calculated using ANOVA.
as §1
(§3) Skin samples were homogenized with Lysing Matrix D, total RNAs were extracted using the ToTally RNA™ Kit following the manufacturer's instructions. RNA was eluted with 40 μl of nuclease-free water.
(§4) The quantification was performed using the Ribogreen® RNA quantitation Kit on 96-well plates and a fluorescence microplate reader according to the manual. Measurements were done in duplicate. The samples were diluted either 1:680 or 1:3400 in a final volume of 100 μl 1×TE buffer. […]
(§5) Data were analysed by ANOVA. […]

A further assay has as its system CD1d1 antigen. The assay can be described thus: Real-time PCR of rat skin total RNA, CD1d1 expression. It counts as in vivo, female wistar rats. The following applies: vs control diet. As to the method:
as §2, §1, §3, §4, §5
(Real-time PCR tracks product formation cycle by cycle.)

Take `COc1ccc([C@@H]2CC(=O)c3c(O)cc(O[C@@H]4O[C@H](C(=O)O)[C@@H](O)[C@H](O)[C@H]4O)cc3O2)cc1O` [hesperetin-7-O-glucuronide]: the “potency of protective effect compared to the aglycone” value in assay [1] (10 μM each, FIG. 1) was “more potent compared to hp”. Also, the “protective effect against cell death (LDH activity)” value in assay [1] (10 μM, challenged with 100 μM menadione for 5 h, vs DMSO control) is listed as “even more pronounced”. Moreover, the “cell death (LDH activity)” value in assay [1] (10 μM, vs DMSO control) is given as “reducing cell death”.
In the case of `COc1ccc([C@@H]2CC(=O)c3c(O)cc(O)cc3O2)cc1O` [hesperetin], the “cell death (LDH activity)” value in assay [1] (10 μM, vs DMSO control) is on record as “reducing cell death”.
With `COc1ccc([C@@H]2CC(=O)c3c(O)cc(O[C@@H]4O[C@H](CO[C@@H]5O[C@@H](C)[C@H](O)[C@@H](O)[C@H]5O)[C@@H](O)[C@H](O)[C@H]4O)cc3O2)cc1O` [hesperidin], the “number of inflammatory cells in skin (histopathology)” value in the assay with rat skin was “reduced number of inflammatory cells”. In the assay with interleukin 6 (IL-6), the “IL-6 mRNA levels in skin” value is “significantly reduced”. Besides, the “CD1d1 mRNA levels in skin” value with CD1d1 antigen (rats fed 0.1% hesperidin diet) and in the assay on CD1d1 antigen (rats fed 0.5% hesperidin diet) was “significantly decreased” each time.
